Reference: publication PMC5218480 (PLoS ONE, 2017)

Tested on: MV-4-11 cells
Assay: Gene expression microarray analysis (Affymetrix PrimeView) and GSEA
Type: cell-based, human
Parameters: RFU PODN (11730768_x_at) / Fold change /veh PODN (11730768_x_at) / RFU LINC00158 (11744669_a_at) / Fold change /veh LINC00158 (11744669_a_at) / RFU DUSP10 (11751237_a_at) / Fold change /veh DUSP10 (11751237_a_at) / RFU ID3 (11757404_x_at) / Fold change /veh ID3 (11757404_x_at) / RFU PLEKHG5 (11737974_s_at) / Fold change /veh PLEKHG5 (11737974_s_at) / RFU LRRC4B (11730491_at) / Fold change /veh LRRC4B (11730491_at) / RFU GIMAP4 (11747438_a_at) / Fold change /veh GIMAP4 (11747438_a_at) / RFU KRT8 (11758183_x_at) / Fold change /veh KRT8 (11758183_x_at) / RFU CNN1 (11734310_a_at) / Fold change /veh CNN1 (11734310_a_at) / RFU VPS37D (11726825_at) / Fold change /veh VPS37D (11726825_at) / RFU C10orf10 (11716522_x_at) / Fold change /veh C10orf10 (11716522_x_at) / RFU KIR2DL2 /// KIR2DL4 /// KIR2DL5A /// KIR2DL5B /// KIR2DS1 /// KIR2DS2 /// KIR2DS3 /// KIR2DS4 /// KIR3DL3 /// KIR3DL3 /// KIR3DS1 (11738374_at) / Fold change /veh KIR2DL2 /// KIR2DL4 /// KIR2DL5A /// KIR2DL5B /// KIR2DS1 /// KIR2DS2 /// KIR2DS3 /// KIR2DS4 /// KIR3DL3 /// KIR3DL3 /// KIR3DS1 (11738374_at) / RFU C1QL1 (11718748_at) / Fold change /veh C1QL1 (11718748_at) / RFU TMPRSS4 (11747572_a_at) / Fold change /veh TMPRSS4 (11747572_a_at) / RFU HAMP (11756126_x_at) / Fold change /veh HAMP (11756126_x_at) / RFU RNFT2 (11725882_a_at) / Fold change /veh RNFT2 (11725882_a_at) / RFU NR4A2 (11747474_a_at) / Fold change /veh NR4A2 (11747474_a_at) / RFU ABCC12 (11746883_a_at) / Fold change /veh ABCC12 (11746883_a_at) / RFU TMEM136 (11760407_x_at) / Fold change /veh TMEM136 (11760407_x_at) / RFU CLDN22 /// WWC2 (11732394_at) / Fold change /veh CLDN22 /// WWC2 (11732394_at) / RFU HLA-DPB1 (11760878_x_at) / Fold change /veh HLA-DPB1 (11760878_x_at) / RFU SPINT1 (11716480_a_at) / Fold change /veh SPINT1 (11716480_a_at) / RFU GAP43 (11754022_s_at) / Fold change /veh GAP43 (11754022_s_at) / RFU A4GNT (11735810_at) / Fold change /veh A4GNT (11735810_at) / RFU PRB3 (11715151_x_at) / Fold change /veh PRB3 (11715151_x_at) / RFU TUBB4B (11761932_at) / Fold change /veh TUBB4B (11761932_at) / RFU CAPN14 (11732068_a_at) / Fold change /veh CAPN14 (11732068_a_at) / RFU TMCC2 (11721928_a_at) / Fold change /veh TMCC2 (11721928_a_at) / RFU IRGQ (11745062_a_at) / Fold change /veh IRGQ (11745062_a_at) / RFU FAM174B (11720279_a_at) / Fold change /veh FAM174B (11720279_a_at) / RFU TMPRSS4 (11748680_a_at) / Fold change /veh TMPRSS4 (11748680_a_at) / RFU FAM212B (11763350_a_at) / Fold change /veh FAM212B (11763350_a_at) / RFU PLEKHG5 (11743358_a_at) / Fold change /veh PLEKHG5 (11743358_a_at) / RFU ZSCAN30 (11745921_a_at) / Fold change /veh ZSCAN30 (11745921_a_at) / RFU CMKLR1 (11741424_a_at) / Fold change /veh CMKLR1 (11741424_a_at) / RFU LOC101060620 /// MAPK8IP1 (11723275_at) / Fold change /veh LOC101060620 /// MAPK8IP1 (11723275_at) / RFU SPTSSB (11747773_x_at) / Fold change /veh SPTSSB (11747773_x_at) / RFU PRSS12 (11739890_at) / Fold change /veh PRSS12 (11739890_at) / RFU BIN1 (11741810_x_at) / Fold change /veh BIN1 (11741810_x_at) / RFU WNT11 (11732464_a_at) / Fold change /veh WNT11 (11732464_a_at) / RFU C10orf10 (11716521_a_at) / Fold change /veh C10orf10 (11716521_a_at) / RFU C5orf56 (11738089_at) / Fold change /veh C5orf56 (11738089_at) / RFU CYB561 (11721691_x_at) / Fold change /veh CYB561 (11721691_x_at) / RFU ANKRD19P (11752326_a_at) / Fold change /veh ANKRD19P (11752326_a_at) / RFU OR2T12 /// OR2T33 /// OR2T8 (11738714_s_at) / Fold change /veh OR2T12 /// OR2T33 /// OR2T8 (11738714_s_at) / RFU VCAN (11748164_a_at) / Fold change /veh VCAN (11748164_a_at) / RFU JSRP1 (11732532_at) / Fold change /veh JSRP1 (11732532_at) / RFU KRTAP10-11 (11738290_x_at) / Fold change /veh KRTAP10-11 (11738290_x_at) / RFU MYO3A (11730013_a_at) / Fold change /veh MYO3A (11730013_a_at) / RFU EBF3 (11725865_a_at) / Fold change /veh EBF3 (11725865_a_at) / RFU CAMK2N1 (11719241_x_at) / Fold change /veh CAMK2N1 (11719241_x_at) / RFU C5orf56 (11738088_a_at) / Fold change /veh C5orf56 (11738088_a_at) / RFU OLFML3 (11715873_a_at) / Fold change /veh OLFML3 (11715873_a_at) / RFU LOC100653217 /// NTM (11731650_a_at) / Fold change /veh LOC100653217 /// NTM (11731650_a_at) / RFU MAPK11 (11762145_a_at) / Fold change /veh MAPK11 (11762145_a_at) / RFU FIZ1 (11724087_x_at) / Fold change /veh FIZ1 (11724087_x_at) / RFU OASL (11726364_x_at) / Fold change /veh OASL (11726364_x_at) / RFU SOX15 (11748057_x_at) / Fold change /veh SOX15 (11748057_x_at) / RFU CD79A (11719716_a_at) / Fold change /veh CD79A (11719716_a_at) / RFU HIST1H1D (11736915_at) / Fold change /veh HIST1H1D (11736915_at) / RFU CASKIN2 (11723855_a_at) / Fold change /veh CASKIN2 (11723855_a_at) / RFU LOC730098 (11760151_x_at) / Fold change /veh LOC730098 (11760151_x_at) / RFU OR4N2 (11742367_at) / Fold change /veh OR4N2 (11742367_at) / RFU PRRT2 (11749266_a_at) / Fold change /veh PRRT2 (11749266_a_at) / RFU SNX32 (11753110_a_at) / Fold change /veh SNX32 (11753110_a_at) / RFU CDHR5 (11726645_a_at) / Fold change /veh CDHR5 (11726645_a_at) / RFU RCAN1 (11760418_a_at) / Fold change /veh RCAN1 (11760418_a_at) / RFU FAM167A (11723789_a_at) / Fold change /veh FAM167A (11723789_a_at) / RFU FAM26E (11764081_at) / Fold change /veh FAM26E (11764081_at) / RFU ISYNA1 (11749810_s_at) / Fold change /veh ISYNA1 (11749810_s_at) / RFU ACY1 (11761880_at) / Fold change /veh ACY1 (11761880_at) / RFU 11764098_at / Fold change /veh 11764098_at / RFU SAMD14 (11745864_x_at) / Fold change /veh SAMD14 (11745864_x_at) / RFU NPB (11741838_a_at) / Fold change /veh NPB (11741838_a_at) / RFU TMPRSS6 (11731388_a_at) / Fold change /veh TMPRSS6 (11731388_a_at) / RFU KRTAP10-2 (11738614_at) / Fold change /veh KRTAP10-2 (11738614_at) / RFU ARHGAP8 /// PRR5-ARHGAP8 (11727945_x_at) / Fold change /veh ARHGAP8 /// PRR5-ARHGAP8 (11727945_x_at) / RFU KRTAP5-7 /// NADSYN1 (11734609_at) / Fold change /veh KRTAP5-7 /// NADSYN1 (11734609_at) / RFU RASL12 (11751679_a_at) / Fold change /veh RASL12 (11751679_a_at) / RFU CDKN2B (11736163_a_at) / Fold change /veh CDKN2B (11736163_a_at) / RFU PRF1 (11729649_at) / Fold change /veh PRF1 (11729649_at) / RFU, ZNF638 /// ZNF638-IT1 / Fold change vs veh, ZNF638 /// ZNF638-IT1 / RFU, PANK3 / Fold change vs veh, PANK3 / RFU, SH3YL1 / Fold change vs veh, SH3YL1 / RFU, ZEB2 / Fold change vs veh, ZEB2 / RFU, NRIP1 / Fold change vs veh, NRIP1 / RFU, PTTG1IP / Fold change vs veh, PTTG1IP / RFU, CAPN2 / Fold change vs veh, CAPN2 / RFU, MED14 / Fold change vs veh, MED14 / RFU, SNORA58 / Fold change vs veh, SNORA58 / RFU, C1orf63 / Fold change vs veh, C1orf63 / RFU, LRRFIP1 / Fold change vs veh, LRRFIP1 / RFU, NDUFAF7 / Fold change vs veh, NDUFAF7 / RFU, SLC12A2 / Fold change vs veh, SLC12A2 / RFU, IBTK / Fold change vs veh, IBTK / RFU, ESF1 / Fold change vs veh, ESF1 / Fold change vs veh, TMEM50B / RFU, TAOK1 / Fold change vs veh, TAOK1 / RFU, ACBD3 / Fold change vs veh, ACBD3 / RFU, TMA16 / Fold change vs veh, TMA16 / RFU, RWDD3 / Fold change vs veh, RWDD3 / RFU, BCAT1 / Fold change vs veh, BCAT1 / RFU, EDEM3 / Fold change vs veh, EDEM3 / RFU, TMEM33 / Fold change vs veh, TMEM33 / RFU, WDR75 / Fold change vs veh, WDR75 / RFU, AHCTF1 / Fold change vs veh, AHCTF1 / RFU, TFRC / Fold change vs veh, TFRC / RFU, ZDHHC17 / Fold change vs veh, ZDHHC17 / RFU, NOM1 / Fold change vs veh, NOM1 / RFU, ARL8B / Fold change vs veh, ARL8B / RFU, ZBTB11 / Fold change vs veh, ZBTB11 / RFU, TAMM41 / Fold change vs veh, TAMM41 / RFU, KIAA1704 /// LOC100996395 / Fold change vs veh, KIAA1704 /// LOC100996395 / RFU, ING1 / Fold change vs veh, ING1 / RFU, TRMT61B / Fold change vs veh, TRMT61B / RFU, FUBP3 / Fold change vs veh, FUBP3 / RFU, TP53 / Fold change vs veh, TP53 / RFU, TNKS2 / Fold change vs veh, TNKS2 / RFU, ZFP14 / Fold change vs veh, ZFP14 / RFU, ACTR2 / Fold change vs veh, ACTR2 / RFU, PPP3R1 / Fold change vs veh, PPP3R1 / RFU, PIK3R1 / Fold change vs veh, PIK3R1 / RFU, HNRNPA1 / Fold change vs veh, HNRNPA1 / RFU, RNF170 / Fold change vs veh, RNF170 / RFU, ZNF28 / Fold change vs veh, ZNF28 / RFU, RNGTT / Fold change vs veh, RNGTT / RFU, OGT / Fold change vs veh, OGT / RFU, BRD1 / Fold change vs veh, BRD1 / RFU, MARS / Fold change vs veh, MARS / RFU, ZNF655 / Fold change vs veh, ZNF655 / RFU, FAHD1 / Fold change vs veh, FAHD1 / RFU, BDP1 / Fold change vs veh, BDP1 / RFU, LRRCC1 / Fold change vs veh, LRRCC1 / RFU, ARID1A / Fold change vs veh, ARID1A / RFU, ZNF146 / Fold change vs veh, ZNF146 / RFU, ZNF330 / Fold change vs veh, ZNF330 / RFU, GPN3 / Fold change vs veh, GPN3 / RFU, C9orf123 / Fold change vs veh, C9orf123 / RFU, N4BP2L2 / Fold change vs veh, N4BP2L2 / RFU, ARFIP1 / Fold change vs veh, ARFIP1 / RFU, FAM179B / Fold change vs veh, FAM179B / RFU, BCL10 / Fold change vs veh, BCL10 / RFU, UHRF1BP1L / Fold change vs veh, UHRF1BP1L / RFU, BET1 / Fold change vs veh, BET1 / RFU, CNOT2 / Fold change vs veh, CNOT2 / RFU, ZNF268 / Fold change vs veh, ZNF268 / Fold change vs veh, ZNF507 / RFU, DGCR2 / Fold change vs veh, DGCR2 / RFU, WDSUB1 / Fold change vs veh, WDSUB1 / Fold change vs veh, HSP90B1 /// MIR3652 / RFU, ADSS / Fold change vs veh, ADSS / RFU, GK / Fold change vs veh, GK / RFU, ZNF148 / Fold change vs veh, ZNF148 / RFU, TAF9 / Fold change vs veh, TAF9 / RFU, SLC1A5 / Fold change vs veh, SLC1A5 / RFU, SLMO2 / Fold change vs veh, SLMO2 / RFU, ABCC4 / Fold change vs veh, ABCC4 / RFU, LOC101060439 /// RAP1B / Fold change vs veh, LOC101060439 /// RAP1B / RFU, RFX7 / Fold change vs veh, RFX7 / RFU, GTPBP10 / Fold change vs veh, GTPBP10 / RFU, CNEP1R1 / Fold change vs veh, CNEP1R1 / RFU, BIVM-ERCC5 /// ERCC5 / Fold change vs veh, BIVM-ERCC5 /// ERCC5 / RFU, ILF3 / Fold change vs veh, ILF3 / RFU 11762660_at / Fold change /veh 11762660_at / RFU VCAN (11757783_s_at) / Fold change /veh VCAN (11757783_s_at) / RFU DDX43 (11728927_at) / Fold change /veh DDX43 (11728927_at) / RFU KRT8 (11758188_x_at) / Fold change /veh KRT8 (11758188_x_at) / RFU NKD1 (11759106_at) / Fold change /veh NKD1 (11759106_at) / RFU SRD5A1 (11742802_a_at) / Fold change /veh SRD5A1 (11742802_a_at) / RFU TPSAB1 /// TPSB2 (11721975_s_at) / Fold change /veh TPSAB1 /// TPSB2 (11721975_s_at) / RFU GSTM3 (11746129_a_at) / Fold change /veh GSTM3 (11746129_a_at) / RFU IL23R (11737362_x_at) / Fold change /veh IL23R (11737362_x_at) / RFU TMEM51 (11727254_a_at) / Fold change /veh TMEM51 (11727254_a_at) / RFU PIWIL2 (11732686_x_at) / Fold change /veh PIWIL2 (11732686_x_at) / RFU ORM1 (11744905_x_at) / Fold change /veh ORM1 (11744905_x_at) / RFU CCDC152 (11743942_at) / Fold change /veh CCDC152 (11743942_at) / RFU ECM1 (11717891_a_at) / Fold change /veh ECM1 (11717891_a_at) / RFU IL23R (11748794_a_at) / Fold change /veh IL23R (11748794_a_at) / RFU TNFAIP8L3 (11732012_x_at) / Fold change /veh TNFAIP8L3 (11732012_x_at) / RFU MBOAT4 (11741988_at) / Fold change /veh MBOAT4 (11741988_at) / RFU 11764193_at / Fold change /veh 11764193_at / RFU TMEM53 (11763286_at) / Fold change /veh TMEM53 (11763286_at) / RFU MAGEB2 (11727129_at) / Fold change /veh MAGEB2 (11727129_at) / RFU TMEM200A (11744735_a_at) / Fold change /veh TMEM200A (11744735_a_at) / RFU CCDC152 (11751479_a_at) / Fold change /veh CCDC152 (11751479_a_at) / RFU FAM211A (11726209_a_at) / Fold change /veh FAM211A (11726209_a_at) / RFU RGS16 (11746705_a_at) / Fold change /veh RGS16 (11746705_a_at) / RFU VCAN (11755009_s_at) / Fold change /veh VCAN (11755009_s_at) / RFU RHOB (11743442_s_at) / Fold change /veh RHOB (11743442_s_at) / RFU RGS16 (11720943_a_at) / Fold change /veh RGS16 (11720943_a_at) / RFU RGS16 (11720944_at) / Fold change /veh RGS16 (11720944_at) / RFU, VPS4B / Fold change vs veh, VPS4B / RFU, CREB1 / Fold change vs veh, CREB1 / RFU, DNAJC13 / Fold change vs veh, DNAJC13 / RFU, GNAQ / Fold change vs veh, GNAQ / RFU, CDK5R1 / Fold change vs veh, CDK5R1 / RFU, ZRANB3 / Fold change vs veh, ZRANB3 / RFU, CUL4A / Fold change vs veh, CUL4A / RFU, CCNY / Fold change vs veh, CCNY / RFU, UFL1 / Fold change vs veh, UFL1 / RFU, COG3 / Fold change vs veh, COG3 / RFU, DIAPH2 / Fold change vs veh, DIAPH2 / RFU, SKA2 / Fold change vs veh, SKA2 / RFU, AFF3 / Fold change vs veh, AFF3 / RFU, LMF1 / Fold change vs veh, LMF1 / RFU, IPO11 / Fold change vs veh, IPO11 / RFU, DFFB / Fold change vs veh, DFFB / RFU, FOXP1 / Fold change vs veh, FOXP1 / RFU, CARD8 / Fold change vs veh, CARD8 / RFU, STRN3 / Fold change vs veh, STRN3 / RFU, ADK / Fold change vs veh, ADK / RFU, RASSF2 / Fold change vs veh, RASSF2 / RFU, WIPF1 / Fold change vs veh, WIPF1 / RFU, LARP1B / Fold change vs veh, LARP1B / RFU, RASA1 / Fold change vs veh, RASA1 / RFU, RB1 / Fold change vs veh, RB1 / RFU, PPFIA1 / Fold change vs veh, PPFIA1 / RFU, MAT2A / Fold change vs veh, MAT2A / RFU, CCT5 / Fold change vs veh, CCT5 / RFU, WDR92 / Fold change vs veh, WDR92 / RFU, CUX1 / Fold change vs veh, CUX1 / RFU, TTC7A / Fold change vs veh, TTC7A / RFU, TMEM135 / Fold change vs veh, TMEM135 / RFU, DEPTOR / Fold change vs veh, DEPTOR / RFU, CPM / Fold change vs veh, CPM / RFU, DNAJB6 / Fold change vs veh, DNAJB6 / RFU, CACNA2D3 / Fold change vs veh, CACNA2D3 / RFU, DTX4 / Fold change vs veh, DTX4 / RFU, TFCP2 / Fold change vs veh, TFCP2 / RFU, GMCL1 /// GMCL1P1 / Fold change vs veh, GMCL1 /// GMCL1P1 / RFU, AEBP2 / Fold change vs veh, AEBP2 / RFU, SNHG1 /// SNORD22 /// SNORD25 /// SNORD26 /// SNORD27 /// SNORD28 /// SNORD29 /// SNORD31 / Fold change vs veh, SNHG1 /// SNORD22 /// SNORD25 /// SNORD26 /// SNORD27 /// SNORD28 /// SNORD29 /// SNORD31 / Fold change (Aza/veh), C12orf56 (ProbeSet 11735607_a_at) / Fold change (ACY-1035/veh), C12orf56 (ProbeSet 11735607_a_at) / Fold change (Aza/veh), FGFR1OP (ProbeSet 11751329_s_at) / Fold change (ACY-1035/veh), FGFR1OP (ProbeSet 11751329_s_at) / Fold change (Aza/veh), VPS36 (ProbeSet 11739960_a_at) / Fold change (ACY-1035/veh), VPS36 (ProbeSet 11739960_a_at) / RFU SYPL1 (11715823_x_at) / Fold change /veh SYPL1 (11715823_x_at) / RFU IGFBP7 (11715501_s_at) / Fold change /veh IGFBP7 (11715501_s_at) / RFU REEP3 (11722064_at) / Fold change /veh REEP3 (11722064_at) / RFU IGLL1 (11728026_x_at) / Fold change /veh IGLL1 (11728026_x_at): dose or concentration left out as unconfirmed
Settings: MV-4-11 cells, 48 hours

Compound: Nc1ncn([C@@H]2O[C@H](CO)[C@@H](O)[C@H]2O)c(=O)n1 [azacitidine]
- Fold change /veh TMPRSS4 (11748680_a_at): 0.94
